From patent publication US6706663B2, “Herbicidal 3-heterocyclic substituted benzisothiazole and benzisoxazole compounds” (Wyeth, priority 2000, dated 2004)

Columns and labels:
[1] = tested on: CHEAL (Chenopodium album); test: Preemergence herbicidal evaluation; format: in vivo, L.; conditions: preemergence, rated 4-5 weeks after treatment
Outline: (§1)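 Visual 0–9 rating versus control (stand, vigor, malformation, size, chlorosis, overall appearance), scored four to five weeks post-treatment. Preemergence spray of aqueous acetone solution onto freshly seeded soil cups; plants grown under conventional greenhouse care.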

[2] = tested on: AMBEL (Ambrosia artemisifolia); test: Preemergence herbicidal evaluation; format: in vivo, L.; conditions: preemergence, rated 4-5 weeks after treatment
Outline: as §1

[3] = tested on: CASOB (Cassia obtusifolia); test: Preemergence herbicidal evaluation; format: in vivo, L.; conditions: preemergence, rated 4-5 weeks after treatment
Outline: as §1

[4] = tested on: IPOHE (Ipomoea hederacea); test: Postemergence herbicidal evaluation; format: in vivo, (L.) Jacq.
Outline: (§2)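 Seedlings grown about two weeks in flats, sprayed, then kept under standard greenhouse care. Rated visually 4–5 weeks after treatment on a 0–9 scale (stand, vigour, malformation, size, chlorosis, overall appearance) relative to untreated control; repeat tests averaged.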

[5] = tested on: ABUTH (Abutilon theophrasti); test: Postemergence herbicidal evaluation; format: in vivo, Medic.
Outline: as §2

ORYSAT (Rice, Tebonnet) [6] = test: Preemergence herbicidal evaluation; format: in vivo, Oryza sativa, (L.) Tebonnet; conditions: preemergence, rated 4-5 weeks after treatment
[7] = tested on: ABUTH (Abutilon theophrasti); test: Preemergence herbicidal evaluation; format: in vivo, Medic.; conditions: preemergence, rated 4-5 weeks after treatment
[8] = tested on: CHEAL (Chenopodium album); test: Postemergence herbicidal evaluation; format: in vivo, L.
Outline: as §2

[9] = tested on: AMBEL (Ambrosia artemisifolia); test: Postemergence herbicidal evaluation; format: in vivo, L.
Outline: as §2

[10] = tested on: CASOB (Cassia obtusifolia); test: Postemergence herbicidal evaluation; format: in vivo, L.
Outline: as §2

[11] = tested on: ECHORC (Echinochloa oryzoides); test: Flooded paddy, preemergence weed control; format: in vivo, Echinochloa oryzoides (Ard.) Fritsch.; conditions: rated 3-4 weeks after treatment, 0-9 rating scale
Outline: (§3)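 Visual 0-9 rating versus control, scoring stand, vigor, malformation, size, chlorosis and overall appearance. Silt loam soil, propagules in top 0.5 cm; flood depth 1.5–3 cm held for the whole test; greenhouse.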

ORYSAT (Rice, Tebonnet) [12] = test: Flooded paddy, post-transplant rice tolerance; format: in vivo, Oryza sativa, (L.) Tebonnet; conditions: flooded paddy, post-transplant rice, rated 3-4 weeks after treatment, 0-9 rating scale
Outline: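 Visual 0-9 rating against a control, covering stand, vigor, malformation, size, chlorosis and overall appearance. Treatment was applied after transplanting paired ten-day-old seedlings into flooded silt loam, with water kept 1.5 to 3 cm deep on greenhouse benches.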

ZEAMX (Corn, Field) = test: Postemergence herbicidal evaluation; format: in vivo, Zea mays, L.
Outline: as §2

ORYSAT (Rice, Tebonnet) [13] = test: Postemergence herbicidal evaluation; format: in vivo, Oryza sativa, (L.) Tebonnet
Outline: as §2

[14] = tested on: SAGPY (Sagittaria pygmaea); test: Flooded paddy, preemergence weed control; format: in vivo, L.; conditions: rated 3-4 weeks after treatment, 0-9 rating scale
Outline: as §3

[15] = tested on: TRZAWR (Wheat, Winter, cv Riband); test: Postemergence herbicidal evaluation; format: in vivo, Triticum aestivum
Outline: as §2

[16] = tested on: TRZAWR (Wheat, Winter, cv Riband); test: Preemergence herbicidal evaluation; format: in vivo, Triticum aestivum; conditions: preemergence, rated 4-5 weeks after treatment
Outline: as §1

[17] = tested on: ECHCG (Echinochloa crus-galli); test: Postemergence herbicidal evaluation; format: in vivo, (L.) Beau
Outline: as §2

[18] = tested on: CYPSE (Cyperus serotinus); test: Flooded paddy, preemergence weed control; format: in vivo, Rottb.; conditions: rated 3-4 weeks after treatment, 0-9 rating scale
Outline: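 Herbicidal effect was scored visually on a 0–9 scale against an untreated control 3–4 weeks after treatment. Compounds were applied preemergence as 50/50 v/v aqueous/acetone mixtures into flood water (1.5–3 cm deep over silt loam), at roughly 0.0080 to 0.1250 kg/ha active ingredient.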

With `Cc1ccsc1-c1nsc2ccc(-n3c(=O)cc(C(F)(F)F)n(C)c3=O)cc12` [Compound 4, 1-methyl-3-[3-(3-methyl-2-thienyl)-1,2-benzisothiazol-5-yl]-6-(trifluoromethyl)uracil] the “CHEAL preemergence herbicidal rating” value ([1]; Rate 0.0620 kg/ha) was 9.0, the “CHEAL preemergence herbicidal rating” value ([1]; Rate 0.1250 kg/ha) was 9.0 and the “CHEAL preemergence herbicidal rating” value ([1]; Rate 0.2500 kg/ha) was 8.0. The “AMBEL preemergence herbicidal rating” value ([2]; Rate 0.0620 kg/ha) was 5.9, the “AMBEL preemergence herbicidal rating” value ([2]; Rate 0.1250 kg/ha) was 7.3 and the “AMBEL preemergence herbicidal rating” value ([2]; Rate 0.2500 kg/ha) was 8.9. For the same molecule, the “CASOB preemergence herbicidal rating” value ([3]; Rate 0.0620 kg/ha) was 1.3, the “CASOB preemergence herbicidal rating” value ([3]; Rate 0.1250 kg/ha) was 3.4 and the “CASOB preemergence herbicidal rating” value ([3]; Rate 0.2500 kg/ha) was 5.0. The “Postemergence herbicidal rating, IPOHE” value ([4]; rate 0.0320 kg/ha) was 8.6, the “Postemergence herbicidal rating, IPOHE” value ([4]; rate 0.0620 kg/ha) was 9.0 and the “Postemergence herbicidal rating, IPOHE” value ([4]; rate 0.1250 kg/ha) was 9.0. The “Postemergence herbicidal rating, ABUTH” value ([5]; rate 0.0320 kg/ha) was 9.0, the “Postemergence herbicidal rating, ABUTH” value ([5]; rate 0.0620 kg/ha) was 9.0 and the “Postemergence herbicidal rating, ABUTH” value ([5]; rate 0.1250 kg/ha) was 9.0. For the same molecule, the “ORYSAT preemergence herbicidal rating” value (ORYSAT (Rice, Tebonnet) [6]; Rate 0.0620 kg/ha) was 1.4, the “ORYSAT preemergence herbicidal rating” value (ORYSAT (Rice, Tebonnet) [6]; Rate 0.1250 kg/ha) was 1.9 and the “ORYSAT preemergence herbicidal rating” value (ORYSAT (Rice, Tebonnet) [6]; Rate 0.2500 kg/ha) was 2.8. For the same molecule, the “ABUTH preemergence herbicidal rating” value ([7]; Rate 0.0620 kg/ha) was 7.8, the “ABUTH preemergence herbicidal rating” value ([7]; Rate 0.1250 kg/ha) was 8.9 and the “ABUTH preemergence herbicidal rating” value ([7]; Rate 0.2500 kg/ha) was 9.0. For the same molecule, the “Postemergence herbicidal rating, CHEAL” value ([8]; rate 0.0320 kg/ha) was 9.0, the “Postemergence herbicidal rating, CHEAL” value ([8]; rate 0.0620 kg/ha) was 9.0 and the “Postemergence herbicidal rating, CHEAL” value ([8]; rate 0.1250 kg/ha) was 9.0. For the same molecule, the “Postemergence herbicidal rating, AMBEL” value ([9]; rate 0.0320 kg/ha) was 8.1, the “Postemergence herbicidal rating, AMBEL” value ([9]; rate 0.0620 kg/ha) was 8.3 and the “Postemergence herbicidal rating, AMBEL” value ([9]; rate 0.1250 kg/ha) was 9.0. For the same molecule, the “Postemergence herbicidal rating, CASOB” value ([10]; rate 0.0320 kg/ha) was 5.2, the “Postemergence herbicidal rating, CASOB” value ([10]; rate 0.0620 kg/ha) was 6.2 and the “Postemergence herbicidal rating, CASOB” value ([10]; rate 0.1250 kg/ha) was 9.0. For the same molecule, the “herbicidal rating, ECHORC” value ([11]; rate 0.0080 kg/ha) was 4.0, the “herbicidal rating, ECHORC” value ([11]; rate 0.0320 kg/ha) was 9.0 and the “herbicidal rating, ECHORC” value ([11]; rate 0.1250 kg/ha) was 9.0. For the same molecule, the “herbicidal rating, ORYSAT (rice tolerance)” value (ORYSAT (Rice, Tebonnet) [12]; rate 0.0080 kg/ha) was 2.0, the “herbicidal rating, ORYSAT (rice tolerance)” value (ORYSAT (Rice, Tebonnet) [12]; rate 0.0320 kg/ha) was 3.5 and the “herbicidal rating, ORYSAT (rice tolerance)” value (ORYSAT (Rice, Tebonnet) [12]; rate 0.1250 kg/ha) was 4.0. For the same molecule, the “Postemergence herbicidal rating, ZEAMX” value (ZEAMX (Corn, Field); rate 0.0320 kg/ha) was 4.4, the “Postemergence herbicidal rating, ZEAMX” value (ZEAMX (Corn, Field); rate 0.0620 kg/ha) was 4.5 and the “Postemergence herbicidal rating, ZEAMX” value (ZEAMX (Corn, Field); rate 0.1250 kg/ha) was 5.0. For the same molecule, the “Postemergence herbicidal rating, ORYSAT” value (ORYSAT (Rice, Tebonnet) [13]; rate 0.0320 kg/ha) was 2.8, the “Postemergence herbicidal rating, ORYSAT” value (ORYSAT (Rice, Tebonnet) [13]; rate 0.0620 kg/ha) was 3.8 and the “Postemergence herbicidal rating, ORYSAT” value (ORYSAT (Rice, Tebonnet) [13]; rate 0.1250 kg/ha) was 4.5. The “herbicidal rating, SAGPY” value ([14]; rate 0.0080 kg/ha) was 0.0, the “herbicidal rating, SAGPY” value ([14]; rate 0.0320 kg/ha) was 2.0 and the “herbicidal rating, SAGPY” value ([14]; rate 0.1250 kg/ha) was 5.5. The “Postemergence herbicidal rating, TRZAWR” value ([15]; rate 0.0320 kg/ha) was 3.7, the “Postemergence herbicidal rating, TRZAWR” value ([15]; rate 0.0620 kg/ha) was 4.2 and the “Postemergence herbicidal rating, TRZAWR” value ([15]; rate 0.1250 kg/ha) was 5.2. For the same molecule, the “TRZAWR preemergence herbicidal rating” value ([16]; Rate 0.0620 kg/ha) was 1.2, the “TRZAWR preemergence herbicidal rating” value ([16]; Rate 0.1250 kg/ha) was 2.5 and the “TRZAWR preemergence herbicidal rating” value ([16]; Rate 0.2500 kg/ha) was 4.3. For the same molecule, the “Postemergence herbicidal rating, ECHCG” value ([17]; rate 0.0320 kg/ha) was 2.0, the “Postemergence herbicidal rating, ECHCG” value ([17]; rate 0.0620 kg/ha) was 2.8 and the “Postemergence herbicidal rating, ECHCG” value ([17]; rate 0.1250 kg/ha) was 1.7. For the same molecule, the “herbicidal rating, CYPSE” value ([18]; rate 0.0080 kg/ha) was 0.0, the “herbicidal rating, CYPSE” value ([18]; rate 0.0320 kg/ha) was 6.5 and the “herbicidal rating, CYPSE” value ([18]; rate 0.1250 kg/ha) was 9.0.
